Measured values as given in patent publication US20230218573A1, “INDOLE COMPOUNDS FOR THE TREATMENT OF NEURODEGENERATIVE DISEASES” (GALYAN BIO, INC., priority 2020, published 2023).
Entries after “also recorded” stand apart in the source; their conditions may differ.

How the values were obtained:
[1] = test system: STHdh 111/111 striatal cells; assay: Cell viability (CellTiter Glo) of heat shocked STHdh 111/111 striatal cells; format: cell-based, mouse; details: Mus musculus, STHdh 111/111; 10 µM; 48 hours treatment; read-out: Cell Viability striatal cells 3h heat shocked
Experimental: Cell culture - ST HDH Q111/111 (CH00095, Coriell Institute) striatal derived cell line were grown at 33° C. in DMEM (Sigma-Aldrich), supplemented with 10% fetal bovine serum (FBS), 1% Penicillin-Streptomycin (ThermoFisher Scientific), and 0.4 mg/ml G418 (Geneticin; Invitrogen). ST HDH Q111/111 are mouse striatal cells with polyQ length of 1111.
(§1) Pre-Treatment of striatal cell line - First the medium was removed and new DMEM (DMEM, high glucose, HEPES, no phenol red) medium, supplemented with 10% fetal bovine serum (FBS), 1% Penicillin-Streptomycin, containing 10 µM compound was added. The cells were incubated at 33° C. for 24 hours.
(§2) Heat shock - Cells were heat shocked for 3 hours at 41° C.
(§3) Treatment - Medium was removed and new DMEM (DMEM, high glucose, HEPES, no phenol red) medium, supplemented with 1% fetal bovine serum (FBS), 1% Penicillin-Streptomycin, containing 10 µM compound was added. The cells were incubated at 33° C. for 48 hours.
Cell Viability - Cell viability was measured according to manufacturer recommendations with CellTiter Glo (Promega). 96-well plates for used either for cell viability determination or cell staining.

mHTT [2] = target: T1, mHTT (Mus musculus, UniProt P42859, DEL28-30/G47A/INS49LLPQPQPP/INS60VA/L56P/P40L); assay: mHTT reduction in STHdh 111/111 cells exposed to autophagy inhibitor NH4Cl or UPS inhibitor MG132; format: cell-based; parameters: host or cells: ST HDH Q111/111 mouse striatal derived cell line; details: striatal cells exposed to MG132
Experimental: Invitrogen). […] Staining - Cells were permeabilized with 0.3% Triton X-100 in 4° C. PBS (pH 7.4 from ThermoFisher) for 10 minutes. Then the cells were washed two times with 4° C. PBS. Subsequently, cells are blocked with 3% NGS (normal goat serum from Thermo Fisher) in 4° C. PBS for 1 hour. […] Primary antibodies were mouse antipolyglutamine monoclonal antibody 3B5H10 (Sigma-Aldrich) at 1:250 dilution and Guinea Pig anti-MAP2 polyclonal antibody (Synaptic Systems) at 1:500 dilution. For LC3 staining primary antibodies were mouse anti-LC3 mab (5F10) (nanoTools) at 1:500 dilution and Guinea Pig anti-MAP2 polyclonal antibody (Synaptic Systems) at 1:500 dilution. Cells were washed 2 times with 4° C. PBS, and then incubated with secondary antibodies at 1:2000 dilution in blocking buffer for 1 hour at room temperature. […] Fluorescence Imaging - Imaging sessions were performed on a confocal microscope system (Carl Zeiss Microscopy) equipped with a dual spinning disk unit (Yokogawa). […] The fluorescence images obtained of the immunofluorescence labelled tissue sections were quantified with the help of the “Image Processing and Analysis in Java” or short ImageJ software distributed under the GNU General Public License by the NIH (Rueden, C.T. et al., BMC Bioinformatics. 2017 Nov 29;18(1):529), i.e. the edition used was the Fiji distribution (Schindelin, J. et al., Nature methods. 2012 Jun 28;9(7):676-82). […]

[3] = test system: Htt14A2.6 PC12 cells (mHttex1-GFP); assay: mHTT aggregation by filter retardation assay in Htt14A2.6 PC12 cells; format: cell-based; details: 24 hour treatment, different concentrations
Experimental: Compounds from the Biacore screening were selected for measurement of aggregation in a cell model Htt14A2.6 PC12. Htt14A2.6 PC12 cells express a GFP- tagged 97Q mHtt exon 1 fusion protein (mHttex1-GFP) in the presence of ponasterone A. Htt14A2.6 PC12 cells were grown in medium containing 5 µM ponasterone A for 20 hours prior to treatment with the compounds. Htt14A2.6 PC12 cells were plated at 50~60% confluency. Compound 22 was tested at a final concentration of 80 nM, 400 nM and 10 µM in cell culture medium for 24 hours. Htt14A2.6 PC12 cells were harvested, rinsed, homogenized in cold phosphate-buffered saline containing protease inhibitor cocktail, and centrifuged at 16000 g for 30 min at 4° C. twice. About 25 µg total protein of each sample was resolved in 8% SDS PAGE, transferred onto PVDF membrane, blotted with an anti-GFP antibody, and visualized by ECL detection. mHTT aggregates were quantified from the cell lysates by filter retardation assay (Wanker, E.E., et al., Methods Enzymol (1999); 309: 375-386).

mHTT [4] = target: T1, mHTT; assay: Diffuse mHTT levels in heat shocked STHdh 111/111 striatal cells by immunocytochemistry; details: 48 h, read-out: mHTT after treatment
Experimental: as §1, §2, §3
Staining - Cells were permeabilized with 0.3% Triton X-100 in 4° C. PBS (pH 7.4 from ThermoFisher) for 10 minutes. Then the cells were washed two times with 4° C. PBS. Subsequently, cells are blocked with 3% NGS (normal goat serum from Thermo Fisher) in 4° C. PBS for 1 hour. Cells were incubated with primary antibodies in blocking buffer (PBS, 3% NGS, 0.02% NaN3) over night at 4° C. Primary antibodies were mouse antipolyglutamine monoclonal antibody 3B5H10 (Sigma-Aldrich) at 1:250 dilution and Guinea Pig anti-MAP2 polyclonal antibody (Synaptic Systems) at 1:500 dilution. 3B5H10 binds to diffuse mHTT. Diffuse mHTT is a monomeric and small oligomeric mHTT.
Cells were washed 2 times with 4° C. PBS, and then incubated with secondary antibodies at 1:2000 dilution in blocking buffer for 1 hour at room temperature. […] Cells were washed 2 times with 4° C. PBS, and then the nuclei were counterstain with DAPI (ThermoFisher) for 10 min at room temperature in the dark. Cells were washed 2 times with 4° C. PBS, and then 4° C. PBS was added to cells and then images were acquired.
Fluorescence Imaging - Imaging sessions were performed on a confocal microscope system (Carl Zeiss Microscopy) equipped with a dual spinning disk unit (Yokogawa). All components of the imaging system were controlled via the ZEN 2 software suite (Carl Zeiss Microscopy). The laser lines used were 405 nm, 488 nm and 639 nm to excite DAPI or the respective fluorophores. […] Nested t test was performed to calculate the significance amongst repeated measurements using GraphPad Prism software.
ST HDH Q7/7 (CH00097, Coriell Institute) striatal derived cell line from a knock in transgenic mouse containing HTT loci with a humanized Exon 1 containing 7 polyglutamine repeats.
EC 50 value was determined with non-linear regression.

Mur46 = details: 0.1 mM compound concentration
Experimental: MurTRX, Mur 16 and Mur46 Protein Purification - Proteins were loaded onto IMAC resin (ThermoFisher Scientific HisPur) and eluted in 200 mM imidazole, purified by gel filtration FPLC (HiLoad superdex-200, 26/60; GE Life sciences) and concentrated using 3 kDa cut off Vivaspin 20 PES centrifugal concentrators (Sartorius AG). Proteins were biotinylated using a 1:0.5 molar ratio of EZ-link™ Sulfo-NHS-LC-LC-Biotin (ThermoFisher Scientific) and thoroughly dialysed against PBS prior to Biacore coupling.
A customized biotin capture chip using NeutrAvidin as the capture ligand was created for this assay. To obtain high enough ligand density on the sensor chip surface, NeutrAvidin (Thermoscientific Pierce, Waltham, MA USA) was immobilised on all four sensor chip surfaces to a level of approximately 20,000 RU.
Capture of the Mur ligands to NeutrAvidin - Biotinylated proteins were diluted in HBS EP+ running buffer and captured on the sensor chip surface. Mur46 was coupled to the sensor chip first. After saturating FC3 with Mur46, target response levels for Mur16 and MurTRX were calculated based on their respective molecular weights. […]
Analog Screening-Methods - Analog or derivative compounds from the secondary screen were determined and were used in an analog Biacore SPR screen. […]

[5] = Modified PAMPA with brain lipids, blood brain barrier permeation by LC-MS-MS; format: in vitro ADME
Experimental: Compounds from the Biacore screening were analyzed in a modified Parallel Artificial Permeation Assay (PAMPA) assay for their ability to permeate the blood brain barrier. The filter material of a 96-well microplate is impregnated with brain lipids (Di, L. et al., Eur. J. Med. Chem. 2003 Mar;38(3):223-232). The test compounds were added to the donor compartment. […] Based on these permeation data, the drugs were classified as blood brain barrier permeating (BBB+) with a flux rate >50% or non-permeating (BBB-) with a flux rate <50%.

Exon1 Q46 = assay: Circular dichroism of Exon1 Q46, predominantly α-helical state; format: biochemical; details: Exon1 Q46; conc. compound 1.62 µM
Experimental: Protein samples were diluted with buffer to 7.5 µM prior to Circular Dichroism (CD) measurements. Measurements were conducted at room temperature.
Four spectra at each measurement were taken every 1 nm from 200 to 260 nm, scanning at 50 nm/min with an averaging time of 1 sec. Spectra were obtained from samples in 20 mM phosphate, pH 7.4. Ten scans were averaged for each sample spectrum
Single-wavelength readings at 222 nm were obtained. After subtraction of the Trx contribution, the α-helical content of Httex1 was estimated from its mean residue ellipticity (MREHttex1) at 222 nm. This calculation was conducted as described by Bravo-Arredondo (Bravo-Arredondo, J.M. et al., J Biol Chem. 2018 Dec 21;293(51):19613-19623).
MRE Exon-1 […] and Q46 (Mean Residue Ellipticity) was measured every 1 sec for 300 sec; the 301 readings for each sample were averaged and MRE Trx subtracted. The number of amino acids in each sample to experience a change in helicity was estimated using a previously developed helix-coil transition model, which gave the change in fraction of helicity (ΔfHelix) by the following equation: […]
where MRE Exon1 Q26 or Q46 (MREHttex1 in the formula) describes the helix-coil transition, obtained from the difference between MRE Eon1 Q26 or Q46 at 222 nm of the fusion protein at the given temperature (in our case 37° C.) and the product of MRE Trx at 222 nm at the same temperature and the fraction of residues comprised by Trx in that particular construct, and
In order to calculate an equilibrium of the two states model, percent α-helicity was calculated using the relation of MREHttex1 = 0 and -34700 (deg cm^2 dmol^-1) for 0% and 100% helicity, respectively.
The CD measurements protocol for Compound 101 was the same as outlined above except that from 206 nm - 210 nm and 220 nm - 224 nm, the step size was 0.2 nm, and the bandwidth was 1 nm.

T1 sequence (P42859 with tags, fused parts or gaps DEL28-30/P40L/G47A/INS49LLPQPQPP/L56P/INS60VA): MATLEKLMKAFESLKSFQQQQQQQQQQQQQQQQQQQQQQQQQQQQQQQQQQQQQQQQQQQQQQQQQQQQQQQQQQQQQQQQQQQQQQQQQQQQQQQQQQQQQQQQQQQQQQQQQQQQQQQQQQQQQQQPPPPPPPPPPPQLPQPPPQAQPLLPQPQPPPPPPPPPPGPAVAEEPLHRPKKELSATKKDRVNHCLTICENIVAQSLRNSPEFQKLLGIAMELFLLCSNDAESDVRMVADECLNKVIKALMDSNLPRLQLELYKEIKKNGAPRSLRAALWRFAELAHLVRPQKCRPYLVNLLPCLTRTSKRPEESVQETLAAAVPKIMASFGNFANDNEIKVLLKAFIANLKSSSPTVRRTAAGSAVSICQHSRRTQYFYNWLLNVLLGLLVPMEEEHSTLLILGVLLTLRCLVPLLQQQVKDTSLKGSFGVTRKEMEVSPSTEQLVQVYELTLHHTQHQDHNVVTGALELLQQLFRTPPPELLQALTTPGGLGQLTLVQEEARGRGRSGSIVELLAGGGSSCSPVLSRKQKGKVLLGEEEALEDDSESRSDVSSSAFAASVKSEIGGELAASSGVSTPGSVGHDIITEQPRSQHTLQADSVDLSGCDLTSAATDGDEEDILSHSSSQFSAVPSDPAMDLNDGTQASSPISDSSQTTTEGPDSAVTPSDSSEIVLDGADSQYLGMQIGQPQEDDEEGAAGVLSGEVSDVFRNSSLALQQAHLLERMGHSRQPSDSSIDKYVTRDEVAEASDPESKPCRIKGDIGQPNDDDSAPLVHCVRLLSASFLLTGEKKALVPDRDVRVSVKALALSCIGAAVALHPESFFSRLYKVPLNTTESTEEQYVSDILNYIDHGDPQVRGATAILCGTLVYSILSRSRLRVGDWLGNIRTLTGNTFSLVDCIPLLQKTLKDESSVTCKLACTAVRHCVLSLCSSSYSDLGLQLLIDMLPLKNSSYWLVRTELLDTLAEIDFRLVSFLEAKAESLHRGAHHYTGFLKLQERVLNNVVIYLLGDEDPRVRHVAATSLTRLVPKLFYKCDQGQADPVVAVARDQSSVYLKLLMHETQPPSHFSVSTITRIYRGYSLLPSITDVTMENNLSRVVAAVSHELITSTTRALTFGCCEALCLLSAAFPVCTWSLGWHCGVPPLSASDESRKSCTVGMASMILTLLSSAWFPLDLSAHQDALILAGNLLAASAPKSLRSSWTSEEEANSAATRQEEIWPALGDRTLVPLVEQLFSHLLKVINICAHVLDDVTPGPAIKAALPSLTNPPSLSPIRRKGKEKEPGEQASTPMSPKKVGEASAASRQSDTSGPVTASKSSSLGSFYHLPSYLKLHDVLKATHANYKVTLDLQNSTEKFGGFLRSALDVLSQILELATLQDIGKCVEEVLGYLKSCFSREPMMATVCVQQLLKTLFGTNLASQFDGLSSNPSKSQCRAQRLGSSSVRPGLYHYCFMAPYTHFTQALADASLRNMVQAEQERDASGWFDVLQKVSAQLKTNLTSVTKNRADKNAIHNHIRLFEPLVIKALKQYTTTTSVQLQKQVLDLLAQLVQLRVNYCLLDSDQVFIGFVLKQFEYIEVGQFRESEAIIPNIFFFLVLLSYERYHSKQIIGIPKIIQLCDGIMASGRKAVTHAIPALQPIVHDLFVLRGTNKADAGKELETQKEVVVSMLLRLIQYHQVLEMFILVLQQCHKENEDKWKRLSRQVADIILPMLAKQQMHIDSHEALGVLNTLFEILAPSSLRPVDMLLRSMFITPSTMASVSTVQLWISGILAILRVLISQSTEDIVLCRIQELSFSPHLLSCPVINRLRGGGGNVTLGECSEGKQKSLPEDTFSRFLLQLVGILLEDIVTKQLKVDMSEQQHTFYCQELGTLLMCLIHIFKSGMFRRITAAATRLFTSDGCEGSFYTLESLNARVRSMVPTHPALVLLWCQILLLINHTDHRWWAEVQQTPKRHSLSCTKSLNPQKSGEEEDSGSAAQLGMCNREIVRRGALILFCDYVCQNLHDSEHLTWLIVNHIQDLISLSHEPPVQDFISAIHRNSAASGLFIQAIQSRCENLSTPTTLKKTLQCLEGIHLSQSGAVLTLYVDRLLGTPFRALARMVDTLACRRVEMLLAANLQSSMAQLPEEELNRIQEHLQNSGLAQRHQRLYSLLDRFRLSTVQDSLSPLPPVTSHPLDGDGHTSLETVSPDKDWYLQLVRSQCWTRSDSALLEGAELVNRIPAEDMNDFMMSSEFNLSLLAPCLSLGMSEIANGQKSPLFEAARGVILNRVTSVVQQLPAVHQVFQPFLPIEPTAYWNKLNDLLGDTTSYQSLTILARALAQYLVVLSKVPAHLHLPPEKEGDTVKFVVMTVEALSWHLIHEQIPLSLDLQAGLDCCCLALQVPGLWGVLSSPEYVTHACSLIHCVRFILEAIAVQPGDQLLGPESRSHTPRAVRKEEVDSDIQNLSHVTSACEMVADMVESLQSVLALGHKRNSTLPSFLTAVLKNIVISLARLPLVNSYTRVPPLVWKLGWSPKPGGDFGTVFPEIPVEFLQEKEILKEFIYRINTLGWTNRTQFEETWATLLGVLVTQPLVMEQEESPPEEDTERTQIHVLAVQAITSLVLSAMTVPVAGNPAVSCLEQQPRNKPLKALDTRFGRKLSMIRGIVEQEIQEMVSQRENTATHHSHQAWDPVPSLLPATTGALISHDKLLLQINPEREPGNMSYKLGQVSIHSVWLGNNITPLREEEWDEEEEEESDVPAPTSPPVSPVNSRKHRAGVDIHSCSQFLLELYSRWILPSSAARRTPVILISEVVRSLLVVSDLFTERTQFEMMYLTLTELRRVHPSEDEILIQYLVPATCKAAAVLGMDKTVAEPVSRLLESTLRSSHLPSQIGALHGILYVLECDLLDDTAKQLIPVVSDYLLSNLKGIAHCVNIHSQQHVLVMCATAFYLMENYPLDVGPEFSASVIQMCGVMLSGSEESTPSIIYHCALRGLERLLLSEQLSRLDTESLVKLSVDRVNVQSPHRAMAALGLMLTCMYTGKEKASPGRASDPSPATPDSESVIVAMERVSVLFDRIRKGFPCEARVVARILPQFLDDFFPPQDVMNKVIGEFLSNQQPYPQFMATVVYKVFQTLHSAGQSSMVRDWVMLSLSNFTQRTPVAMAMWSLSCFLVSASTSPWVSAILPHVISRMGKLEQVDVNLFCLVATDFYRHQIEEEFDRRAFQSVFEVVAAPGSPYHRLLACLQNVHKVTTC

O=C(NCCN1CCC1)c1ccc2[nH]c3c(c2c1)CCCC3 [Compound 20]
viability at 10 µM [1]: 118% | mHTT reduction with MG132 in comparison to without MG132 (mHTT [2]): less

Cc1[nH]c2ccc(C(=O)NCCN(C)C)cc2c1C [Compound 7]
viability at 10 µM [1]: 96% | reduction of mHTT aggregation (filter retardation) [3]: A reduction of aggregation of Htt14A2.6 PC12 was not observed; also recorded: did not show a reduction of aggregation | remaining activity at 10 µM (mHTT [4]): 45% | Biacore affinity (RU^2) (Mur46): 122 RU^2 | Classification [5]: BBB+ (blood brain barrier permeating (BBB+) with a flux rate >50%) | recovery [5]: 88.5%

Cc1[nH]c2ccc(C(=O)NC3CCC(N(C)C)CC3)cc2c1C (centres unmarked) [Compound 101, N-(4-(dimethylamino)cyclohexyl)-2,3-dimethyl-1H-indole-5-carboxamide]
viability at 10 µM [1]: 110% | Fraction Helix fH (%) (Exon1 Q46): 19.0%

Cc1[nH]c2ccc(C(=O)N(C)CCN(C)C3CC3)cc2c1C [Compound 114]
Biacore affinity (RU^2) (Mur46): 20 RU^2
